pIC50: −log10 of the molar value.
Biological target: T1, human IDO1 protein (Homo sapiens, UniProt P14902)
T1 construct: purchased ChemPartner Lot; No. 20160706
Assay: Enzymatic IDO1 assay (Absorbance 321 assay)
Type: biochemical
Settings: for Inhibition ratio (%) @ 20 μM / inhibition at 20 µM: 20 μM compound; for Avg_Inh (%) @ 50uM: average inhibition, Table S2; for Background (%): background signal of the compound in the absorbance assay; for inhibition at 20 µM: read-out: Inhibition ratio (%) @ 20 μM
Description: The standard assay mixture contained modified potassium phosphate buffer at pH 6.5, 100 μM L-tryptophan (Sigma, Cat. […] No. […]). […] Then the assay plate was read at OD321 kinetically in Spectramax. […] Fit the data in […]5.0 software to obtain IC50-values using Equation (2): (2) Y=Bottom+Top-Bottom/1+10^(logIC50-X)×HillSlope where Y stands for inhibition percentage and X stands for compound concentration. All determinations were carried out in duplicate.

T1 sequence (P14902 whole entry): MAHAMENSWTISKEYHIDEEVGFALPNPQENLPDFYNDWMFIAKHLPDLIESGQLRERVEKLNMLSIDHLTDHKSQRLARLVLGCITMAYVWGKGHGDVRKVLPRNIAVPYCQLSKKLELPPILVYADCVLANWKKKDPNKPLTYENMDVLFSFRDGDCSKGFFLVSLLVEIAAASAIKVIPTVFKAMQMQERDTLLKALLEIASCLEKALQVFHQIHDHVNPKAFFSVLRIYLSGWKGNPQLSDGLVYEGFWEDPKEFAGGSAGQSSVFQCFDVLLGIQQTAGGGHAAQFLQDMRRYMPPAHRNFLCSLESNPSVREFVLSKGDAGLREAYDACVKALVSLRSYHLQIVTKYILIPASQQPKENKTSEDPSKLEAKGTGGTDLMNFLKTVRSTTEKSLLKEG

SMILES | Avg_Inh (%) @ 50uM | Background (%) | also measured
Nc1ccc(Br)cc1C(O)c1ccc(Cl)cc1 (stereo not drawn) [DC-I032] | 63.02% | 33.85% | Inhibition ratio (%) @ 20 μM: 25.26%
O=C(COC(=O)c1ccc2ccccc2n1)c1ccc(Cl)cc1 [DC-I046] | 63.18% | 44.38% | Inhibition ratio (%) @ 20 μM: 28.10%
Cc1cc(-c2cccs2)c2c(N)c(C(=O)NCCc3c[nH]c4ccccc34)sc2n1 [DC-I079] | 85.60% | 60.62% | Inhibition ratio (%) @ 20 μM: 36.42%
O=C(CSc1nnc(COc2ccc(Cl)cc2Cl)o1)Nc1ccccn1 [DC-I090] | 95.14% | 34.84% | Inhibition ratio (%) @ 20 μM: 41.43%
Cc1cccc(-c2nnc(SCC(=O)Nc3c(C)cc(C)cc3C)o2)c1 [DC-I102] | 80.83% | 43.32% | Inhibition ratio (%) @ 20 μM: 15.17%
CC(=O)c1ccc(N2COc3ccc4ccccc4c3C2)cc1 [DC-I02801] | – | – | inhibition at 20 µM: 17.8%
CC(=O)Nc1cccc2ccc3c(c12)CN(Cc1ccccc1)CO3 [DC-I02803] | – | – | inhibition at 20 µM: -11.2%; IDO1 inhibitory activity (in words) (SAR discussion): inactive
O=C(NC(=S)Nc1c(O)ccc2ccccc12)c1ccccc1I [DC-I02807] | – | – | inhibition at 20 µM: 59.6%; pIC50 (IDO1 enzymatic level): 4.60
COc1ccc(C(=O)NC(=S)Nc2cccc3cc(O)ccc23)cc1OC [DC-I02809] | – | – | inhibition at 20 µM: 17.6%
O=C(NC(=S)Nc1cccc2cc(O)ccc12)c1ccco1 [DC-I02810] | – | – | inhibition at 20 µM: 15.6%
CCCCOc1cccc(-c2c(O)ccc3ccccc23)c1 [DC-I02811] | – | – | inhibition at 20 µM: 8.19%
CC(=O)N(C)c1ccc(-c2c(O)ccc3ccccc23)cc1 [DC-I02812] | – | – | inhibition at 20 µM: 4.69%
Oc1ccc2ccccc2c1Sc1nnnn1-c1ccccc1 [DC-I02813] | – | – | inhibition at 20 µM: 15.6%
Nc1ncnc2sc3c(c12)CCC3 [DCI-001] | -9.13% | 42.64% | –
c1ccc2cc(OCc3nc4ccccc4s3)ccc2c1 [DCI-002] | 81.62% | 44.08% | –
O=C(OCc1ccc(Cl)cc1)c1cc2ccccc2cc1O [DCI-003] | 35.38% | 51.94% | –
Clc1ccc2[nH]cc(-c3nnnn3-c3ccccc3)c2c1 [DCI-004] | 49.29% | 38.90% | –
COc1ccc(CNC(=O)COc2ccc3ccccc3c2)cc1 [DCI-005] | 11.86% | 36.51% | –
CC(=O)Nc1ccc(NC(=O)C2CC(=O)N(c3ccccc3)C2)cc1 (stereo not drawn) [DCI-006] | 2.62% | 34.97% | –
N#Cc1c(SCC(N)=O)nc2c(c1-c1cccnc1)CCC2 [DCI-007] | -0.85% | 44.80% | –
COc1cccc(-c2[nH]nc3c2C(c2ccccc2F)C(C#N)=C(N)O3)c1 (stereo not drawn) [DCI-008] | 22.90% | 42.25% | –
Nc1ccccc1/C=C1/C(=O)Nc2ccccc21 [DCI-009] | 12.24% | 52.98% | –
O=c1cnc2ccccc2n1Cc1cccc(Cl)c1 [DCI-010] | 18.26% | 46.13% | –

Now from value to compound, other results behind:

Avg_Inh (%) @ 50uM | Background (%) | SMILES | also measured
2.22% | 51.96% | COc1ccc(/C=C\c2nccc3ccccc23)cc1OC [DCI-011] | –
42.86% | 56.72% | Cc1cc(=O)oc2cc(OCCSc3ccccc3)ccc12 [DCI-012] | –
4.76% | 38.66% | Cc1ccc(C)c(C(=O)CSc2ncnc3nc[nH]c23)c1 [DCI-013] | –
28.34% | 41.98% | Cc1ccc(C(C)C)cc1C(=O)CC1(O)C(=O)N(C)c2ccc(Br)cc21 (stereo not drawn) [DCI-014] | –
20.11% | 40.12% | O=C(NCC1CCCO1)c1ccc(COc2ccc3ccccc3c2)cc1 (stereo not drawn) [DCI-015] | –
5.08% | 38.92% | COc1ccc(C(N)=O)cc1NS(=O)(=O)c1cccc2cccnc12 [DCI-016] | –
37.65% | 48.33% | Cc1sc2ncnc(SCC(=O)Nc3ccc(S(N)(=O)=O)cc3)c2c1C [DCI-017] | –
-2.06% | 34.42% | CC(O)CNCc1ccc(OCc2ccc3c(c2)OCCO3)cc1 (stereo not drawn) [DCI-018] | –
-8.21% | 33.33% | c1csc(CNCCCc2nc3ccccc3[nH]2)c1 [DCI-019] | –
10.24% | 35.53% | Cc1cccc(C)c1N1CC(C(=O)Nc2cccc3ccccc23)CC1=O (stereo not drawn) [DCI-020] | –
-2.20% | 37.17% | CC1CCCN(C(C)CS(=O)(=O)c2ccc3ccccc3c2)C1 (stereo not drawn) [DCI-021] | –
34.49% | 44.32% | COc1cc2c(cc1OC)C(c1ccc(Br)cc1)OCC2 (stereo not drawn) [DCI-022] | –
-2.26% | 53.84% | Cc1ccc(/C=N/Nc2nc3ccccc3[nH]c2=O)cc1 [DCI-023] | –
45.39% | 56.24% | CC(C)c1ccc(O)c(C(=O)c2cnn(-c3ccccc3)c2)c1 [DCI-024] | –
9.07% | 66.83% | O=c1c(-c2nc3ccccc3[nH]2)coc2cc(O)ccc12 [DCI-025] | –
98.78% | 66.01% | COc1ccc2ccccc2c1/C=C(\C#N)c1nc2ccccc2[nH]1 [DCI-026] | –
43.67% | 56.25% | Cc1sc2nn[nH]c(=O)c2c1C [DCI-027] | –
-6.51% | 40.56% | COc1cc2sc3c(=O)[nH]c4ccccc4c3c2cc1OC [DCI-029] | –
11.57% | 45.02% | CCCC1CCc2c(c3ccccc3[nH]c2=O)O1 (stereo not drawn) [DCI-030] | –
13.99% | 39.14% | O=[N+]([O-])C1C(O)c2ccccc2OC1c1ccccc1 (stereo not drawn) [DCI-031] | –
45.38% | 34.53% | OC1Cc2ccccc2Sc2c(Cl)cccc21 (stereo not drawn) [DCI-033] | –
5.04% | 42.24% | O=C(NCCCNC(=O)c1cc2ccccc2[nH]1)c1ccc(F)cc1 [DCI-034] | –
2.22% | 46.21% | CN(CCCNc1cc(=O)oc2ccccc12)C(=O)c1ccc(F)cc1 [DCI-035] | –
76.32% | 74.58% | Cc1cccc(NC(=S)NC(=O)c2cc3ccccc3o2)n1 [DCI-036] | –
24.85% | 60.63% | CC(=O)c1nc2ccccc2[nH]1 [DCI-037] | –
6.52% | 60.07% | Cc1cc(=O)c2ccc(C(F)(F)F)cc2[nH]1 [DCI-038] | –
-1.03% | 36.31% | O=C(CC1Nc2ccccc2NC1=O)NCc1ccccc1 (stereo not drawn) [DCI-039] | –
40.66% | 31.86% | NNC(=O)c1ccc(COc2ccc3c(c2)CCC3)cc1 [DCI-040] | –
72.23% | 50.76% | CCCn1c(=O)c(C(=O)Nc2ccccc2N)c(O)c2ccccc21 [DCI-041] | –
59.00% | 48.79% | O=C1OC(c2ccccc2)c2ccc3ccccc3c21 (stereo not drawn) [DCI-042] | –
